The supplement of paper PMC13380429

Assays:
Settings in all cases: 72 h
Caco-2 [1] = assay: cell viability relative to DMSO; higher = less toxic
HepG2 [2] = assay: as above
U2OS [3] = assay: as above
Vero E6 [4] = assay: as above
Caco-2 [5] = assay: relative viability EC50 (midpoint between 100% and the lowest measured viability); higher = less toxic
HepG2 [6] = assay: as above
U2OS [7] = assay: as above
Vero E6 [8] = assay: as above
Caco-2 [9] = assay: drug sensitivity score (DSS) for viability; higher = more toxic; extreme values may be limits of the assay
HepG2 [10] = assay: as above
U2OS [11] = assay: as above
Vero E6 [12] = assay: as above
Calu-3 [13] = assay: cell viability relative to DMSO; higher = less toxic
Calu-3 [14] = assay: relative viability EC50 (midpoint between 100% and the lowest measured viability); higher = less toxic
Calu-3 [15] = assay: drug sensitivity score (DSS) for viability; higher = more toxic; extreme values may be limits of the assay

| Compound | cell viability (Caco-2 [1]; 1 nM) | cell viability (Caco-2 [1]; 10 nM) | cell viability (Caco-2 [1]; 100 nM) | cell viability (Caco-2 [1]; 1000 nM) | cell viability (Caco-2 [1]; 10000 nM) | cell viability (HepG2 [2]; 1 nM) | cell viability (HepG2 [2]; 10 nM) | cell viability (HepG2 [2]; 100 nM) | cell viability (HepG2 [2]; 1000 nM) | cell viability (HepG2 [2]; 10000 nM) | cell viability (U2OS [3]; 1 nM) | cell viability (U2OS [3]; 10 nM) | cell viability (U2OS [3]; 100 nM) | cell viability (U2OS [3]; 1000 nM) | cell viability (U2OS [3]; 10000 nM) | cell viability (Vero E6 [4]; 1 nM) | cell viability (Vero E6 [4]; 10 nM) | cell viability (Vero E6 [4]; 100 nM) | cell viability (Vero E6 [4]; 1000 nM) | cell viability (Vero E6 [4]; 10000 nM) | relative viability EC50 (Caco-2 [5]) | relative viability EC50 (HepG2 [6]) | relative viability EC50 (U2OS [7]) | relative viability EC50 (Vero E6 [8]) | drug sensitivity score (Caco-2 [9]) | drug sensitivity score (HepG2 [10]) | drug sensitivity score (U2OS [11]) | drug sensitivity score (Vero E6 [12]) | cell viability (Calu-3 [13]; 1 nM) | cell viability (Calu-3 [13]; 10 nM) | cell viability (Calu-3 [13]; 100 nM) | cell viability (Calu-3 [13]; 1000 nM) | cell viability (Calu-3 [13]; 10000 nM) | relative viability EC50 (Calu-3 [14]) | drug sensitivity score (Calu-3 [15]) |
| --- | --- | --- | --- | --- | --- | --- | --- | --- | --- | --- | --- | --- | --- | --- | --- | --- | --- | --- | --- | --- | --- | --- | --- | --- | --- | --- | --- | --- | --- | --- | --- | --- | --- | --- | --- |
| CCN1CCN(C(=O)N[C@@H](C(=O)N[C@@H]2C(=O)N3[C@@H]2SC(C)(C)[C@@H]3C(=O)O)c2ccccc2)C(=O)C1=O [piperacillin] | 93.8% | 91.1% | 97.8% | 103% | 106% | 114% | 113% | 104% | 103% | 95.5% | 97% | 94% | 93.9% | 102% | 103% | 97.2% | 99.1% | 97.7% | 96.5% | 110% | > 10 µM | > 10 µM | > 10 µM | > 10 µM | 0 | 0 | 0 | 0 | – | – | – | – | – | – | – |
| Cc1ncc(CO)c(/C=N/NC(=O)c2ccncc2)c1O [pyridoxal-isonicotinoyl-hydrazone] | 102% | 108% | 93.3% | 100% | 100% | – | – | – | – | – | 95.8% | 97.4% | 95.8% | 93% | 102% | 100% | 94.2% | 92.5% | 97.4% | 109% | > 10 µM | – | > 10 µM | > 10 µM | 0 | – | 0 | 0 | 90.1% | 99.4% | 102% | 103% | 92% | > 10 µM | 0 |
| CCn1cc(C(=O)O)c(=O)c2ccc(-c3ccncc3)cc21 [rosoxacin] | 102% | 98% | 96.3% | 98.6% | 95.7% | 94.7% | 97.8% | 97.5% | 94.6% | 111% | 101% | 96.6% | 99.2% | 97.8% | 99.9% | 99.8% | 102% | 89.1% | 103% | 103% | > 10 µM | > 10 µM | > 10 µM | > 10 µM | 0 | 0 | 0 | 0 | – | – | – | – | – | – | – |
| CCCCCCCCCCCCCCC[C@@H](O)[C@@H](N)CO [safingol] | 94.1% | 85.3% | 91% | 96.1% | 1.7% | 106% | 103% | 80% | 95.5% | 73.7% | 94% | 97.9% | 102% | 97.9% | 103% | 106% | 106% | 96.1% | 104% | 106% | 2.87 µM | – | > 10 µM | > 10 µM | 6 | 1.9 | 0 | 0 | 85.3% | 96.8% | 95.2% | 108% | 96.4% | > 10 µM | 0 |
| O=C(O)c1cc(O)c2c(c1)[C@H]([C@H]1c3cc(C(=O)O)cc(O)c3C(=O)c3c(O[C@@H]4O[C@H](CO)[C@@H](O)[C@H](O)[C@H]4O)cccc31)c1cccc(O[C@@H]3O[C@H](CO)[C@@H](O)[C@H](O)[C@H]3O)c1C2=O [sennoside-A] | 79.8% | 100% | 88% | 82.1% | 123% | 90.2% | 91.7% | 89.6% | 103% | 92.4% | 94% | 100% | 96.5% | 96.6% | 88.3% | 112% | 93.1% | 95.9% | 98.8% | 101% | > 10 µM | > 10 µM | > 10 µM | > 10 µM | 0 | 0 | 0 | 0 | 95.3% | 96.8% | 90.1% | 91% | 67.3% | – | 2.3 |
| S=C(NC1CCCCC1)N1CCC(c2cnc[nH]2)CC1 [thioperamide] | 98.7% | 99.4% | 92.7% | 103% | 95.4% | 108% | 97.3% | 104% | 100% | 92.7% | 100% | 96.2% | 98.7% | 93.1% | 96.4% | 103% | 103% | 96.5% | 94.3% | 95.9% | > 10 µM | > 10 µM | > 10 µM | > 10 µM | 0 | 0 | 0 | 0 | – | – | – | – | – | – | – |
